Reference: patent publication US11319298B2 (Merck Sharp & Dohme Corp., priority 2016, dated 2022)

These compounds were tested against T1, human M4 muscarinic acetylcholine receptor (Homo sapiens, UniProt P08173) (assay: human FLIPR-based M4 PAM assay, CHO-K1 cells stably transfected with human M4 receptor and chimeric G-protein Gαqi5). Conditions: inflection point (IP) of dose response curve; acetylcholine added at 20% of maximum response; CHO-K1 human M4/Gαqi5, FLIPR Tetra.
T1 construct: expressed in transfected cells; host or cells: CHO-K1
T1 sequence (P08173 1-479): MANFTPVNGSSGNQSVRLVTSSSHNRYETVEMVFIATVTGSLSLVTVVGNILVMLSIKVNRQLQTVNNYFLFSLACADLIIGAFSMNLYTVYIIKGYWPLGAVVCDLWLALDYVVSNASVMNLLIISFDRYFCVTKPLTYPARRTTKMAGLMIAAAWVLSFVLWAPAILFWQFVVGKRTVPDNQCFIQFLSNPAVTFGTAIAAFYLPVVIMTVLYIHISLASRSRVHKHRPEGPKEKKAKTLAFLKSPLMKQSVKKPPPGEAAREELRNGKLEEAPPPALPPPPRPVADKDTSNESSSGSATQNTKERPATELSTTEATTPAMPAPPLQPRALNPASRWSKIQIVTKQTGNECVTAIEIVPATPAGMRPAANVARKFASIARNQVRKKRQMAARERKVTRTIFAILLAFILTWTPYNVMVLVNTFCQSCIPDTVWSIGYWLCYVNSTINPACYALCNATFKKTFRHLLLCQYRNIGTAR
Assay type: cell-based
In short: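 CHO-K1 cells were loaded with calcium dye at 37 °C for ~1 h. Fluorescence (ex 470–495/em 515–575 nm) was read for 4 min after test compound at increasing concentrations, then 3.5 min after acetylcholine at an EC20; sometimes a third addition at EC70 followed. The value is the inflection point of a 4-parameter logistic fit.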

Compound	EC50
COc1ccc(OC2CCN(c3nnc(C(=O)NCc4nncs4)cc3C)CC2)cn1 [Example 113, 6-{4-[(6-methoxypyridn-3-yl)oxy]piperidin-1-yl}-5-methyl-N-(1,3,4-thiadiazol-2-ylmethyl)pyridazine-3-carboxamide]	44 nM
Cc1cc(C(=O)NCc2cnsc2)nnc1N1CCC(Oc2cccc(C#N)c2)CC1 [Example 192, 6-[4-(3-cyanophenoxy)piperidin-1-yl]-N-(isothiazol-4-ylmethyl)-5-methypyridazine-3-carboxamide]	22 nM
COc1ccc(OC2CCN(c3ncnc(NCCC(F)(F)F)c3C)CC2)cn1 [Example 239, 6-(4-((6-methoxypyridin-3-yl)oxy)piperidin-1-yl)-5-methyl-N-(3,3,3-trifluoropropyl)pyrimidin-4-amine]	3200 nM
Cc1cc(C(=O)N[C@H]2CCc3ncccc3C2)nnc1N1CCC(Oc2cccc(C#N)c2)CC1 [Example 130A, (S)-6-[4-(3-cyanophenoxy)piperidin-1-yl]-5-methyl-N-(5,6,7,8-tetrahydroquinolin-6-yl)pyridazine-3-carboxamide]	125 nM
Cc1c(Cl)nc(CO)nc1N1CCC(Oc2ccc3c(cnn3C)c2)CC1 [Example 31, (4-chloro-5-methyl-6-(4-((1-methyl-1H-indazol-5-yl)oxy)piperidin-1-yl)pyrimidin-2-yl)methanol]	157 nM
COc1ccc(OC2CCN(c3nnc(C(=O)NC45CC(C4)C5)cc3C)CC2)cn1 [Example 147, N-bicyclo[1.1.1]pent-1-yl-6-{4-[(6-methoxypyridin-3-yl)oxy]piperidin-1-yl}-5-methylpyridazine-3-carboxamide]	209 nM
Cc1nc2ccc(O[C@@H]3CCN(c4nc(CO)nc(Cl)c4C)C[C@@H]3F)cc2o1 [Example 52, (4-chloro-6-((3S,4R)-3-fluoro-4-((2-methylbenzo[d]oxazol-6-yl)oxy)piperidin-1-yl)-5-methylpyrimidin-2-yl)methanol]	53 nM
COc1ccc(OC2CCN(c3nc(C(=O)NC(C)(C)c4ccncc4)nc(Cl)c3C)CC2)cn1 [Example 220, 4-chloro-6-(4-((6-methoxypyridin-3-yl)oxy)piperidin-1-yl)-5-methyl-N-(2-(pyridin-4-yl)propan-2-yl)pyrimidine-2-carboxamide]	1430 nM
COC(=O)c1cnc(N2CCC(Oc3ccc(OC)nc3)CC2)c(C)c1 [Example 37, methyl 6-(4-((6-methoxypyridin-3-yl)oxy)piperidin-1-yl)-5-methylnicotinate]	225 nM
COc1ccc(OC2CCN(c3nnc(C(=O)NCc4ccc5c(c4)CNC5=O)cc3C)CC2)cn1 [Example 175, 6-{4-[(6-methoxypyridin-3-yl)oxy]piperidin-1-yl}-5-methyl-N-[(1-oxo-2,3-dihydro-1H-isoindol-5-yl)methyl]pyridazine-3-carboxamide]	573 nM
Cc1cc(C(=O)NCc2ccccc2)nnc1N1CCC(Oc2cccc(C#N)c2)CC1 [Example 194, N-benzyl-6-[4-(3-cyanophenoxy)piperidin-1-yl]-5-methylpyridazine-3-carboxamide]	51 nM
COc1ccc(OC2CCN(c3nc(C(N)=O)nc(Br)c3C)CC2)cn1 [Example 225A, 4-bromo-6-(4-((6-methoxypyridin-3-yl)oxy)piperidin-1-yl)-5-methylpyrimidine-2-carboxamide]	62 nM
COc1ccc(OC2CCN(c3ncnc(N(C)CCc4ccccn4)c3C)CC2)cn1 [Example 240, 6-(4-((6-methoxypyridin-3-yl)oxy)piperidin-1-yl)-N,5-dimethyl-N-(2-(pyridin-2-yl)ethyl)pyrimidin-4-amine]	413 nM
Cc1c(Cl)nc(CO)nc1N1CCC(Oc2cccc(S(C)(=O)=O)c2)CC1 [Example 42, (4-chloro-5-methyl-6-(4-(3-(methylsulfonyl)phenoxy)piepridin-1-yl)pyrimidin-2-yl)methanol]	325 nM
Cc1nc2ccc(OC3CCN(c4nnc(C(=O)NC5C6CC5C6)cc4C)CC3)cc2o1 (stereo not shown) [Example 148, N-bicyclo[1.1.1]pent-2-yl-5-methyl-6-{4-[(2-methyl-1,3-benzoxazol-6-yl)oxy]piperidin-1-yl}pyridazine-3-carboxamide]	221 nM
CCc1ncnc(N2CCC(Oc3cccc(C#N)c3)CC2)c1C [Example 261, 3-((1-(6-Ethyl-5-methylpyrimidin-4-yl)piperidin-4-yl)oxy)benzonitrile]	425 nM
Cc1c(C#N)nc(CO)nc1N1CCC(Oc2ccc3c(c2)C(=O)OC3)CC1 [Example 260, 2-(hydroxymethyl)-5-methyl-6-(4-((3-oxo-1,3-dihydroisobenzofuran-5-yl)oxy)piperidin-1-yl)pyrimidine-4-carbonitrile]	2560 nM

Compound	EC50
COC(=O)c1cc(C)c(N2CCC(Oc3ccc(OC)nc3)CC2)nc1F [Example 102, Methyl 2-fluoro-6-(4-((6-methoxypyridin-3-yl)oxy)piperidin-1-yl)-5-methylnicotinate]	378 nM
COc1ccc(OC2CCN(c3nnc(C(=O)OCc4ccncc4)cc3C)CC2)cn1 [Example 106A, Pyridin-4-ylmethyl 6-(4-((6-methoxypyridin-3-yl)oxy)piperidin-1-yl)-5-methylpyridazine-3-carboxylate]	85 nM
COc1ncc(OC2CCN(c3nc(CO)nc(Cl)c3C)CC2)cc1Cl [Example 65, (4-chloro-6-(4-((5-chloro-6-methoxypyridin-3-yl)oxy)piperidin-1-yl)-5-methylpyrimidin-2-yl)methanol]	100 nM
Cc1cc(C(=O)NC2CCc3cnccc3C2)nnc1N1CCC(Oc2cccc(C#N)c2)CC1 (stereo not shown) [Example 172, 6-[4-(3-cyanophenoxy)piperidin-1-yl]-5-methyl-N-(5,6,7,8-tetrahydroisoquinolin-6-yl)pyridazine-3-carboxamide]	508 nM
Cc1ncc(C)c(N2CCC(Oc3ccc(OCCO)nc3)CC2)n1 [Example 64, 2-((5-((1-(2,5-dimethylpyrimidin-4-yl)piperidin-4-yl)oxy)pyridin-2-yl)oxy)ethan-1-ol]	99 nM
Cc1c(Cl)ncnc1N1CCC(Oc2cccnc2)CC1 [Example 14, 4-chloro-5-methyl-6-(4-(pyridin-3-yloxy)piperidin-1-yl)pyrimidine]	609 nM
Cc1nc2cc(OC3CCN(c4nc(CO)nc(Cl)c4C)CC3)ccc2s1 [Example 44, 4(4-chloro-5-methyl-6-(4-((2-methylbenzo[d]thiazol-5-yl)oxy)piperidin-1-yl)pyrimidin-2-yl)methanol]	446 nM
Cc1c(Cl)nc(CO)nc1N1CCC(Oc2ccc3c(c2)C(=O)CCC3)CC1 [Example 38, 7-((1-(6-chloro-2-(hydroxymethyl)-5-methylpyrimidin-4-yl)piperidin-4-yl)oxy)-3,4-dihydronaphthalen-1(2H)-one]	252 nM
COc1ccc(OC2CCN(c3ncncc3Br)CC2)cn1 [Example 95D, 5-bromo-4-(4-((6-methoxypyridin-3-yl)oxy)piperidin-1-yl)pyrimidine]	928 nM
COc1ccc(OC2CCN(c3nc(NCCO)nc(Cl)c3C)CC2)cn1 [Example 228, 2-((4-Chloro-6-(4-((6-methoxypyridin-3-yl)oxy)piperidin-1-yl)-5-methylpyrimidin-2-yl)amino)ethan-1-ol]	156 nM
COc1ccc(OC2CCN(c3nnc(C(=O)NCCc4cn[nH]c4)cc3C)CC2)cn1 [Example 123, 6-{4-[(6-methoxypyridin-3-yl)oxy]piperidin-1-yl}-5-methyl-N-[2-(1H-pyrazol-4-yl)ethyl]pyridazine-3-carboxamide]	101 nM
COc1ccc(OC2CCN(c3nnc(C(=O)NCc4ccnnc4)cc3C)CC2)cn1 [Example 139, 6-{4-[(6-methoxypyridin-3-yl)oxy]piperidin-1-yl}-5-methyl-N-(pyridazin-4-ylmethyl)pyridazine-3-carboxamide]	177 nM
Cc1cc(C(=O)NCc2ccncc2)nnc1N1CCC(Oc2ccc3[nH]ccc3c2)CC1 [Example 110, 6-[4-(1H-indol-5-yloxy)piperidin-1-yl]-5-methyl-N-(pyridin-4-ylmethyl)pyridazine-3-carboxamide]	35 nM
Cc1ncc(C)c(N2CCC(Oc3ccc4cn[nH]c4c3)CC2)n1 [Example 80, 6-((1-(2,5-dimethylpyrimidin-4-yl)piperidin-4-yl)oxy)-1H-indazole]	257 nM
COc1ccc(OC2CCN(c3nnc(C(=O)NCCc4ccccc4)cc3C)CC2)cn1 [Example 196, 6-{4-[(6-methoxypyridin-3-yl)oxy]piperidin-1-yl}-5-methyl-N-(2-phenylethyl)pyridazine-3-carboxamide]	74 nM
COc1ccc(OC2CCN(c3nc(C(=O)NC4CCc5ncccc5C4)nc(Cl)c3C)CC2)cn1 (stereo not shown) [Example 218, 4-chloro-6-(4-((6-methoxypyridin-3-yl)oxy)piperidin-1-yl)-5-methyl-N-(5,6,7,8-tetrahydroquinolin-6-yl)pyrimidine-2-carboxamide]	1050 nM
Cc1c(Cl)nc(CO)nc1N1CC[C@@H](Oc2ccc3c(c2)C(=O)N(C)C3)[C@@H](F)C1 [Example 43, 6-(((3S,4R)-1-(6-chloro-2-(hydroxymethyl)-5-methylpyrimidin-4-yl)-3-fluoropiperidin-4-yl)oxy)-2-methylisoindolin-1-one]	378 nM
